In patent US8952024B2, “Herbicidal pyrimidone derivatives” (E I du Pont de Nemours and Company, priority 2009, dated 2015):

Legend:
Format in all cases: in vivo
corn (Zea mays) = assay: Test B pre-/postemergence plant response
In short: (§1)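 Plants treated either at seeding (loam/sand soil) or postemergence at 2 to 18 cm height, using a surfactant-containing non-phytotoxic solvent formulation. Evaluation was visual after 13 to 15 days, 0 to 100 scale relative to controls.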

[1] = system: giant foxtail (Setaria faberii); assay: Test B pre-/postemergence plant response
In short: as §1

[2] = system: goosegrass (Eleusine indica); assay: Test B pre-/postemergence plant response
In short: as §1

[3] = system: green foxtail (Setaria viridis); assay: Test B pre-/postemergence plant response
In short: as §1

[4] = system: johnsongrass (Sorghum halepense); assay: Test B pre-/postemergence plant response
In short: as §1

[5] = system: lambsquarters (Chenopodium album); assay: Test B pre-/postemergence plant response
In short: as §1

[6] = system: pigweed (Amaranthus retroflexus); assay: Test B pre-/postemergence plant response
In short: as §1

soybean (Glycine max) = assay: Test B pre-/postemergence plant response
In short: as §1

[7] = system: velvetleaf (Abutilon theophrasti); assay: Test B pre-/postemergence plant response
In short: as §1

[8] = system: yellow nutsedge (Cyperus esculentus); assay: Test B pre-/postemergence plant response
In short: as §1

[9] = system: canarygrass (Phalaris minor); assay: Test B postemergence plant response
In short: (§2)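 Plants at the 1- to 4-leaf stage (2 to 18 cm tall), grown in pots of peat moss/vermiculite medium with wetting agent and starter nutrients, received postemergence applications of test chemicals. After 13 to 15 days in a greenhouse, injury was rated visually against untreated controls on a 0 (no effect) to 100 (complete control) scale.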

[10] = system: chickweed (Stellaria media); assay: Test B postemergence plant response
In short: as §2

[11] = system: windgrass (Apera spica-venti); assay: Test B postemergence plant response; details: for Plant response rating, Windgrass: Postemergence
In short: as §2

[12] = system: winter barley (Hordeum vulgare); assay: Test B postemergence plant response; details: for Barley plant response rating (0 to 100 scale): 62 g ai/ha, 0 is no effect
In short: as §2

[13] = Postemergence, 31 g ai/ha, 0 to 100 scale (0 no effect, 100 complete control)
[14] = Postemergence, 125 g ai/ha, scale 0 to 100 (0 no effect, 100 complete control)
[15] = Postemergence, 250 g ai/ha, scale 0 to 100 (0 no effect, 100 complete control), 13 to 15 days
[16] = 125 g ai/ha, scale 0 to 100 (0 no effect, 100 complete control)
[17] = postemergence, 100 is complete control, 13 to 15 days
[18] = 31 g ai/ha, postemergence, scale 0 to 100, 0 is no effect, 100 is complete control
[19] = 62 g ai/ha, postemergence, 0 is no effect, 100 is complete control, 13 to 15 days
[20] = Postemergence, 250 g ai/ha, scale 0 to 100 (0 no effect, 100 complete control)
[21] = Preemergence, 31 g ai/ha, scale 0 to 100 (0 no effect, 100 complete control)
[22] = Preemergence, 62 g ai/ha, scale 0 to 100 (0 no effect, 100 complete control)
[23] = Preemergence, 125 g ai/ha, scale 0 to 100, 0 no effect, 100 complete control
[24] = Preemergence, 250 g ai/ha, 0 to 100 scale

CCCn1c(-c2cc(C)cc(C)c2)ncc(C(=O)C2=C(O)CCCC2=O)c1=O [Compound 156]
30: Plant response rating, Barley [12, 13]
100: Plant response rating, Lambsquarters [5, 15] | Plant response rating, Pigweed [6, 15] | Plant response rating, Velvetleaf [7, 15] | Plant response rating, Chickweed [10, 14] | Plant response rating, Chickweed [10, 15]
65: Plant response rating, Goosegrass [2, 13] | Plant response rating, Johnsongrass [4, 15]
10: Plant response rating, Corn (corn (Zea mays); [13])
15: Plant response rating, Johnsongrass [4, 13] | Plant response rating, Canarygrass [9, 13]
75: Plant response rating, Foxtail, Giant [1, 13] | Plant response rating, Nutsedge, Yellow [8, 15]
85: Plant response rating, Foxtail, Giant [1, 14] | Plant response rating, Foxtail, Green [3, 14] | Plant response rating, Foxtail, Green [3, 15] | Plant response rating, Barley [12, 15]
45: Plant response rating, Corn (corn (Zea mays); [14]) | Plant response rating, Foxtail, Green [3, 13] | Plant response rating, Johnsongrass [4, 14] | Plant response rating, Nutsedge, Yellow [8, 13] | Barley plant response rating (0 to 100 scale) [12, 17]
70: Plant response rating, Goosegrass [2, 14] | Plant response rating, Nutsedge, Yellow [8, 14]
60: Plant response rating, Corn (corn (Zea mays); [15]) | Plant response rating, Pigweed [6, 13] | Plant response rating, Velvetleaf [7, 13] | Plant response rating, Canarygrass [9, 15] | Plant response rating, Windgrass ([11]; 250 g ai/ha, scale 0 to 100 (0 no effect, 100 complete control), 13 to 15 days) | Plant response rating, Barley [12, 14]
95: Plant response rating, Lambsquarters [5, 14] | Plant response rating, Velvetleaf [7, 14]
90: Plant response rating, Foxtail, Giant [1, 15]
80: Plant response rating, Goosegrass [2, 15] | Plant response rating, Lambsquarters [5, 13] | Plant response rating, Soybean (soybean (Glycine max); [13]) | Plant response rating, Chickweed [10, 13]
55: Plant response rating, Windgrass [11, 16]
40: Plant response rating, Canarygrass [9, 14] | Plant response rating, Windgrass ([11]; 31 g ai/ha, 0 to 100 scale (0 no effect, 100 complete control))
98: Plant response rating, Pigweed [6, 14] | Plant response rating, Soybean (soybean (Glycine max); [14]) | Plant response rating, Soybean (soybean (Glycine max); [15])

COCCn1c(-c2cc(F)cc(F)c2)ncc(C(=O)C2=C(O)CCCC2=O)c1=O [Compound 119]
100: Foxtail, Giant plant response rating [1, 24] | Plant response rating, Goosegrass [2, 21] | Plant response rating, Goosegrass [2, 22] | Plant response rating, Goosegrass [2, 23] | Goosegrass plant response rating [2, 24] | Plant response rating, Foxtail, Green [3, 20] | Plant response rating, Foxtail, Green [3, 22] | Plant response rating, Foxtail, Green [3, 23] | Foxtail, Green plant response rating [3, 24] | Lambsquarters plant response rating (0 to 100 scale) [5, 19] | Plant response rating, Lambsquarters [5, 14] | Plant response rating, Lambsquarters [5, 20] | Plant response rating, Lambsquarters [5, 23] | Lambsquarters plant response rating [5, 24] | Plant response rating, Pigweed [6, 14] | Plant response rating, Pigweed [6, 20] | Plant response rating, Pigweed [6, 23] | Pigweed plant response rating [6, 24] | Plant response rating, Velvetleaf [7, 14] | Plant response rating, Velvetleaf [7, 20] | Plant response rating, Velvetleaf [7, 23] | Velvetleaf plant response rating [7, 24] | Plant response rating, Chickweed [10, 14] | Plant response rating, Chickweed [10, 20] | Plant response rating, Windgrass [11, 16]
50: Plant response rating, Corn (corn (Zea mays); [23]) | Corn plant response rating (corn (Zea mays); [24]) | Plant response rating, Johnsongrass [4, 21] | Soybean plant response rating (0 to 100 scale) (soybean (Glycine max); [19]) | Nutsedge, Yellow plant response rating (0 to 100 scale) [8, 19]
85: Foxtail, Giant plant response rating (0 to 100 scale) [1, 19] | Plant response rating, Foxtail, Giant [1, 22] | Plant response rating, Goosegrass [2, 14] | Plant response rating, Foxtail, Green [3, 18] | Plant response rating, Johnsongrass [4, 22] | Plant response rating, Lambsquarters [5, 18] | Windgrass plant response rating (0 to 100 scale) [11, 19]
5: Plant response rating, Canarygrass [9, 18] | Canarygrass plant response rating (0 to 100 scale) [9, 19] | Plant response rating, Barley [12, 14] | Plant response rating, Barley [12, 20]
80: Plant response rating, Johnsongrass [4, 20] | Plant response rating, Pigweed [6, 21] | Plant response rating, Soybean (soybean (Glycine max); [20]) | Plant response rating, Soybean (soybean (Glycine max); [23]) | Soybean plant response rating (soybean (Glycine max); [24]) | Velvetleaf plant response rating (0 to 100 scale) [7, 19] | Plant response rating, Velvetleaf [7, 22] | Chickweed plant response rating (0 to 100 scale) [10, 19]
40: Plant response rating, Corn (corn (Zea mays); [22]) | Johnsongrass plant response rating (0 to 100 scale) [4, 19]
0: Plant response rating, Corn (corn (Zea mays); [21]) | Plant response rating, Barley [12, 18] | Barley plant response rating (0 to 100 scale) [12, 17]
98: Plant response rating, Lambsquarters [5, 22] | Pigweed plant response rating (0 to 100 scale) [6, 19] | Plant response rating, Nutsedge, Yellow [8, 23] | Nutsedge, Yellow plant response rating [8, 24]
95: Plant response rating, Foxtail, Giant [1, 14] | Plant response rating, Foxtail, Giant [1, 20] | Plant response rating, Foxtail, Giant [1, 23] | Plant response rating, Goosegrass [2, 20] | Plant response rating, Foxtail, Green [3, 14] | Plant response rating, Foxtail, Green [3, 21] | Plant response rating, Johnsongrass [4, 23] | Johnsongrass plant response rating [4, 24] | Plant response rating, Lambsquarters [5, 21] | Plant response rating, Pigweed [6, 18] | Plant response rating, Nutsedge, Yellow [8, 22]
10: Plant response rating, Johnsongrass [4, 18] | Plant response rating, Soybean (soybean (Glycine max); [21]) | Plant response rating, Nutsedge, Yellow [8, 18]
70: Plant response rating, Corn (corn (Zea mays); [20]) | Plant response rating, Chickweed [10, 18]
90: Foxtail, Green plant response rating (0 to 100 scale) [3, 19] | Plant response rating, Pigweed [6, 22]
45: Corn plant response rating (0 to 100 scale) (corn (Zea mays); [19])
30: Plant response rating, Canarygrass [9, 14] | Plant response rating, Canarygrass [9, 20]
60: Plant response rating, Corn (corn (Zea mays); [14]) | Plant response rating, Soybean (soybean (Glycine max); [14])
75: Plant response rating, Foxtail, Giant [1, 18] | Plant response rating, Goosegrass [2, 18] | Goosegrass plant response rating (0 to 100 scale) [2, 19] | Plant response rating, Johnsongrass [4, 14] | Plant response rating, Velvetleaf [7, 21] | Plant response rating, Nutsedge, Yellow [8, 20] | Plant response rating, Nutsedge, Yellow [8, 21]
65: Plant response rating, Nutsedge, Yellow [8, 14]
20: Plant response rating, Corn (corn (Zea mays); [18])
55: Plant response rating, Foxtail, Giant [1, 21] | Plant response rating, Soybean (soybean (Glycine max); [22])
